Laboratory results: patent US9399028B2, “Treatment of drug resistant cancer” (ROCKEFELLER UNIVERSITY (THE), priority 2012, dated 2016)

System: B16F10 parental and DTIC-resistant cells
Assay: In vitro cell growth in response to dacarbazine
Format: cell-based, mouse
Conditions: high-dose DTIC treatment
Text: FIG. 31A-I. Activation of LXRβ Suppresses the In Vivo Growth of Melanoma Lines Resistant to Dacarbazine and Vemurafenib. (FIG. 31A) In vitro cell growth by 2.5×10^4 B16F10 parental cells and in vitro-derived B16F10 DTIC-resistant cells in response to varying doses of dacarbazine (DTIC) added to the cell media for 4 days. n=3. (FIG. 31B-FIG. 31D) Tumor growth by 5×10^4 DTIC-sensitive B16F10 parental cells (FIG. 31B) or 5×10^4 DTIC-resistant B16F10 cells (FIG. 31C) subcutaneously injected into C57BL/6-WT mice. Following tumor growth to 5-10 mm3 in volume, mice were treated with dacarbazine (50 mg/kg, i.p., daily) or a control vehicle and randomly assigned to regular chow or a chow supplemented with GW3965 (100 mg/kg). Final day tumor volume measurements are shown in (FIG. 31D). n=8-16 (FIG. 31B), 7-8 (FIG. 31C). (FIG. 31E-FIG. 31F) Tumor growth by DTIC-sensitive MeWo parental cells and in vivo-derived DTIC-resistant MeWo human melanoma cells in response to DTIC or GW3965 treatments. 5×10^5 cells were subcutaneously injected into NOD Scid gamma mice. After formation of tumors measuring 5-10 mm3 in volume, mice were blindedly assigned to a control treatment, a DTIC treatment (50 mg/kg, i.p., administered daily in 5-day cycles with 2-day off-treatment intervals), or a GW3965-supplemented diet treatment (100 mg/kg). Final day tumor measurements are show in (FIG. 31F). n=6-8. […]

**Q.** Which “increase in viability of DTIC-resistant cells compared to parental B16F10” value does the source give for `CN(C)/N=N/c1[nH]cnc1C(N)=O` [dacarbazine] here?
**A.** The value was 7 fold.
